Test results published in US20260242416A1, “ANTIMICROBIAL PEPTIDES” (priority 2023, published 2026).
Where a SMILES comes first, the peptide text is derived from it.

How the values were obtained:
[1] = test system: E. coli ATCC 25922, Salmonella Enteritidis, S. aureus ATCC 29213; assay: Broth microdilution, panel result (at least one / all strains), Example 2; format: cell-based; parameters: key to inhibitory activity (asterisk): *Indicates inhibitory activity; conditions: for inhibitory activity (asterisk): Table 14, against at least one of E. coli ATCC 25922, Salmonella Enteritidis, S. aureus ATCC 29213
Description: The antimicrobial activity of the putative AMPs was determined by a broth microdilution assay as described by the Clinical and Laboratory Standards Institute, with the published adaptations for testing of cationic peptides. Escherichia coli 25922 and Staphylococcus aureus 29213 isolates were purchased from the American Type Culture Collection (ATCC; Manassas, VA, USA). A human clinical isolate of Salmonella enterica serovar Enteritidis was provided by the BC Centre for Disease Control. Bacteria from stocks stored at −80° C. were streaked onto nonselective Columbia blood agar with 5% sheep blood (Oxoid) and incubated overnight at 37° C. Next, 2-4 colonies were streaked onto a new agar plate to ensure uniform health of colonies used in the broth microdilution assay. Isolated colonies were suspended in MHB and the optical density was measured with a spectrophotometer to create an initial inoculum concentration of approximately 1×10^8 cfu/mL. The inoculum was diluted 1:250 to a final concentration of 2-8×10^5 cfu/mL, which was confirmed by performing a Total Viability Count (TVC). The TVC consisted of plating a 1:1000 dilution of the final inoculum on nonselective media and was also used to confirm the health and purity of the inoculum in each trial.
Lyophilized 80 μg peptide aliquots synthesized by GenScript (Piscataway, NJ, USA) were resuspended to 1.28 mg/mL with UltraPure water (Thermo Fisher Scientific, Waltham, MA, USA) and serially diluted in polypropylene 96-well microtiter plates (Greiner Bio-One #650261, Kremsmunster, Austria) from 128 down to 0.5 μg/mL. Two columns per plate were reserved for growth and sterility controls. Inoculum was added to the wells containing the peptide and the growth control. Plates were incubated for 20-24 h at 37° C. The minimum inhibitory concentration (MIC) was determined as the lowest peptide concentration where there was no visible bacterial growth.

E. coli ATCC 25922 = format: cell-based, Escherichia coli; conditions: ATCC 25922
How it was run: (§1)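 CLSI broth microdilution adapted for cationic peptides, in Mueller-Hinton broth, inoculum 2-8×10^5 cfu/mL. Peptides serially diluted from 128 to 0.5 μg/mL in polypropylene plates, incubated 20-24 h at 37° C. MIC = lowest concentration without visible growth.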

[2] = test system: Salmonella enterica serovar Enteritidis (human clinical isolate); format: cell-based; conditions: serovar Enteritidis (human clinical isolate)
How it was run: as §1

S. aureus ATCC 29213 = format: cell-based, Staphylococcus aureus; conditions: ATCC 29213
How it was run: as §1

CC[C@H](C)[C@H](NC(=O)CN)C(=O)N[C@@H](CC(C)C)C(=O)N[C@@H](CCCNC(=N)N)C(=O)N[C@@H](CO)C(=O)N[C@@H](CC(C)C)C(=O)NCC(=O)N[C@@H](Cc1c[nH]c2ccccc12)C(=O)N[C@H](C(=O)N[C@@H](CCC(N)=O)C(=O)N[C@@H](CCSC)C(=O)N1CCC[C@H]1C(=O)N[C@@H](CCCNC(=N)N)C(=O)N[C@@H](CO)C(=O)N[C@@H](CCCNC(=N)N)C(=O)N[C@@H](CCCNC(=N)N)C(=O)N[C@@H](CCCNC(=N)N)C(=O)N[C@@H](Cc1c[nH]cn1)C(=O)N[C@@H](CCCNC(=N)N)C(=O)O)[C@@H](C)CC [AnFI2, GILRSLGWIQMPRSRRRHR] (H-GILRSLGWIQMPRSRRRHR-OH; N-terminus and C-terminus assumed)
inhibitory activity (asterisk) [1]: 721.* GILRSLGWIQMPRSRRRHR

CC[C@H](C)[C@H](NC(=O)CN)C(=O)N[C@@H](Cc1ccc(O)cc1)C(=O)N[C@H](C(=O)NCC(=O)N[C@@H](CCCNC(=N)N)C(=O)N[C@@H](CC(C)C)C(=O)N[C@@H](CC(C)C)C(=O)N1CCC[C@H]1C(=O)N[C@H](C(=O)N[C@@H](Cc1ccc(O)cc1)C(=O)N[C@H](C(=O)N1CCC[C@H]1C(=O)N[C@@H](CCC(N)=O)C(=O)N1CCC[C@H]1C(=O)N[C@@H](CCCNC(=N)N)C(=O)N1CCC[C@H]1C(=O)N1CCC[C@H]1C(=O)N[C@@H](Cc1c[nH]cn1)C(=O)N1CCC[C@H]1C(=O)N[C@@H](CCCNC(=N)N)C(=O)N[C@@H](CC(C)C)C(=O)N[C@@H](CCCNC(=N)N)C(=O)N[C@@H](CCCNC(=N)N)C(=O)O)[C@@H](C)CC)C(C)C)[C@@H](C)O [ApCe1] (H-GIYTGRLLPVYIPQPRPPHPRLRR-OH; N-terminus and C-terminus assumed)
inhibitory activity (asterisk) [1]: 695.* GIYTGRLLPVYIPQPRPPHPRLRR
spectrum of antimicrobial activity ([1]; panel of E. coli, Salmonella Enteritidis, S. aureus, up to 128 μg/mL): antimicrobial activity against Gram-negative bacterial species but not Gram-positives

CC[C@H](C)[C@H](NC(=O)CN)C(=O)N[C@@H](CC(C)C)C(=O)N[C@@H](CCCNC(=N)N)C(=O)N[C@@H](CC(C)C)C(=O)N[C@H](C(=O)N[C@H](C(=O)N[C@@H](CCCNC(=N)N)C(=O)N[C@@H](CCCNC(=N)N)C(=O)N[C@@H](Cc1ccccc1)C(=O)N[C@@H](CCCNC(=N)N)C(=O)N[C@@H](Cc1ccccc1)C(=O)N[C@@H](CO)C(=O)N1CCC[C@H]1C(=O)N[C@H](C(=O)N[C@@H](CC(N)=O)C(=O)N[C@@H](CC(C)C)C(=O)N[C@@H](CC(N)=O)C(=O)N[C@@H](CCCNC(=N)N)C(=O)N[C@@H](Cc1ccc(O)cc1)C(=O)N[C@H](C(=O)N[C@H](C(=O)N[C@@H](C)C(=O)N[C@@H](CCCNC(=N)N)C(=O)N[C@@H](CC(C)C)C(=O)N[C@H](C(=O)N[C@@H](CO)C(=O)NCC(=O)N[C@H](C(=O)N1CCC[C@H]1C(=O)O)C(C)C)C(C)C)C(C)C)[C@@H](C)O)[C@@H](C)O)[C@@H](C)O)C(C)C [BoAr6] (H-GILRLVTRRFRFSPTNLNRYTVARLVSGVP-OH; N-terminus and C-terminus assumed)
inhibitory activity (asterisk) [1]: 790.* GILRLVTRRFRFSPTNLNRYTVARLVSGVP

CC[C@H](C)[C@H](NC(=O)[C@H](CCCCN)NC(=O)[C@@H](N)CCCNC(=N)N)C(=O)N[C@H](C(=O)N[C@@H](C)C(=O)N[C@H](C(=O)N[C@@H](CO)C(=O)N[C@H](C(=O)N[C@@H](Cc1c[nH]cn1)C(=O)N[C@@H](CCCCN)C(=O)N[C@@H](CC(C)C)C(=O)N[C@@H](CS)C(=O)N[C@@H](CCCNC(=N)N)C(=O)N[C@H](C(=O)N[C@@H](CCCCN)C(=O)N[C@@H](CCCNC(=N)N)C(=O)O)C(C)C)C(C)C)C(C)C)[C@@H](C)CC [BoUs1, RKIIAVSVHKLCRVKR] (H-RKIIAVSVHKLCRVKR-OH; N-terminus and C-terminus assumed)
inhibitory activity (asterisk) [1]: 815.* RKIIAVSVHKLCRVKR

CC[C@H](C)[C@H](NC(=O)[C@@H](N)Cc1ccccc1)C(=O)N[C@@H](CCCCN)C(=O)N[C@H](C(=O)N[C@@H](CCC(N)=O)C(=O)N[C@H](C(=O)N[C@@H](CC(C)C)C(=O)N[C@@H](CCCCN)C(=O)N[C@@H](Cc1c[nH]cn1)C(=O)N[C@@H](CC(C)C)C(=O)N[C@H](C(=O)N[C@@H](C)C(=O)NCC(=O)N[C@H](C(=O)N[C@@H](CCCNC(=N)N)C(=O)N[C@H](C(=O)N[C@@H](C)C(=O)N[C@@H](CCCNC(=N)N)C(=O)NCC(=O)N[C@@H](CC(C)C)C(=O)N[C@@H](CC(=O)O)C(=O)N[C@@H](Cc1c[nH]c2ccccc12)C(=O)N[C@@H](CCCCN)C(=O)N[C@@H](Cc1c[nH]c2ccccc12)C(=O)N[C@@H](CCCNC(=N)N)C(=O)O)C(C)C)C(C)C)C(C)C)C(C)C)[C@@H](C)O [CaCa2] (H-FIKTQVLKHLVAGVRVARGLDWKWR-OH; N-terminus and C-terminus assumed)
inhibitory activity (asterisk) [1]: 819.* FIKTQVLKHLVAGVRVARGLDWKWR

CC[C@H](C)[C@H](NC(=O)[C@H](CCCCN)NC(=O)[C@H](CS)NC(=O)[C@H](Cc1ccccc1)NC(=O)[C@H](CCCCN)NC(=O)[C@H](CCCNC(=N)N)NC(=O)[C@H](CO)NC(=O)[C@H](Cc1ccc(O)cc1)NC(=O)CNC(=O)[C@H](CS)NC(=O)[C@@H]1CCCN1C(=O)[C@H](C)NC(=O)[C@@H](NC(=O)[C@H](C)NC(=O)[C@H](Cc1ccccc1)NC(=O)[C@H](Cc1ccccc1)NC(=O)[C@H](Cc1ccccc1)NC(=O)[C@H](CCCNC(=N)N)NC(=O)[C@@H](N)CCCNC(=N)N)[C@@H](C)O)C(=O)N[C@H](C(=O)N[C@@H](CCCNC(=N)N)C(=O)N[C@@H](CCCNC(=N)N)C(=O)N[C@@H](CCCCN)C(=O)N[C@@H](CCCNC(=N)N)C(=O)O)[C@@H](C)O [CaCa4] (H-RRFFFATAPCGYSRKFCKITRRKR-OH; N-terminus and C-terminus assumed)
inhibitory activity (asterisk) [1]: 816.* RRFFFATAPCGYSRKFCKITRRKR

CC(C)C[C@H](NC(=O)[C@@H](NC(=O)[C@H](Cc1ccccc1)NC(=O)[C@H](C)NC(=O)CN)C(C)C)C(=O)N[C@@H](Cc1c[nH]c2ccccc12)C(=O)NCC(=O)N1CCC[C@H]1C(=O)N[C@H](C(=O)N1CCC[C@H]1C(=O)N[C@@H](CCCNC(=N)N)C(=O)N1CCC[C@H]1C(=O)N[C@@H](CCCNC(=N)N)C(=O)N[C@@H](CCCNC(=N)N)C(=O)N[C@@H](CCCNC(=N)N)C(=O)O)[C@@H](C)O [DiLo1, GAFVLWGPTPRPRRR] (H-GAFVLWGPTPRPRRR-OH; N-terminus and C-terminus assumed)
inhibitory activity (asterisk) [1]: 864.* GAFVLWGPTPRPRRR

CC[C@H](C)[C@H](NC(=O)[C@H](C)NC(=O)[C@H](CCCNC(=N)N)NC(=O)[C@@H](N)CCCNC(=N)N)C(=O)N[C@@H](Cc1ccccc1)C(=O)N[C@@H](C)C(=O)N[C@@H](CO)C(=O)N[C@H](C(=O)N[C@@H](CCCNC(=N)N)C(=O)NCC(=O)N[C@@H](Cc1ccc(O)cc1)C(=O)N[C@@H](CC(C)C)C(=O)NCC(=O)N[C@@H](CC(C)C)C(=O)N[C@@H](CCCNC(=N)N)C(=O)N[C@@H](CCCCN)C(=O)N[C@@H](CCCNC(=N)N)C(=O)O)[C@@H](C)CC [MyGu1, RRAIFASIRGYLGLRKR] (H-RRAIFASIRGYLGLRKR-OH; N-terminus and C-terminus assumed)
inhibitory activity (asterisk) [1]: 881.* RRAIFASIRGYLGLRKR

CC(C)C[C@H](NC(=O)[C@H](Cc1ccccc1)NC(=O)[C@H](CC(C)C)NC(=O)[C@H](CCCCN)NC(=O)[C@H](Cc1c[nH]cn1)NC(=O)[C@@H](NC(=O)[C@H](Cc1ccccc1)NC(=O)[C@H](CO)NC(=O)[C@H](CC(C)C)NC(=O)[C@@H](NC(=O)[C@H](C)N)C(C)C)C(C)C)C(=O)N[C@@H](CC(N)=O)C(=O)N[C@@H](Cc1ccccc1)C(=O)N[C@@H](CC(C)C)C(=O)N[C@@H](Cc1c[nH]cn1)C(=O)N[C@H](C(=O)N[C@@H](CC(=O)O)C(=O)N[C@H](C(=O)N[C@@H](CO)C(=O)N[C@@H](CCCCN)C(=O)NCC(=O)N[C@@H](CCCCN)C(=O)N[C@@H](CS)C(=O)N[C@@H](CCCNC(=N)N)C(=O)N[C@@H](C)C(=O)N[C@H](C(=O)N[C@@H](CC(C)C)C(=O)N[C@@H](CCC(N)=O)C(=O)O)[C@@H](C)O)[C@@H](C)O)C(C)C [TeRu3] (H-AVLSFVHKLFLNFLHVDTSKGKCRATLQ-OH; N-terminus and C-terminus assumed)
MIC (ug/mL) E. coli (E. coli ATCC 25922): >128/>128/>128 ug/mL
MIC (ug/mL) S. Enteritidis [2]: >128/>128/>128 ug/mL
MIC (ug/mL) S. aureus (S. aureus ATCC 29213): >128/>128/>128 ug/mL

CC[C@H](C)[C@H](NC(=O)[C@@H](N)Cc1ccccc1)C(=O)N[C@@H](CC(C)C)C(=O)N[C@@H](Cc1c[nH]cn1)C(=O)N[C@@H](C)C(=O)N[C@@H](CCCCN)C(=O)N[C@@H](CCCCN)C(=O)N[C@H](C(=O)N[C@@H](CCCNC(=N)N)C(=O)N[C@@H](CO)C(=O)N[C@@H](C)C(=O)N[C@@H](CCCCN)C(=O)O)[C@@H](C)O [VeSi1, FILHAKKTRSAK] (H-FILHAKKTRSAK-OH; N-terminus and C-terminus assumed)
MIC (ug/mL) E. coli (E. coli ATCC 25922): >128/>128/>128 ug/mL
MIC (ug/mL) S. Enteritidis [2]: >128/>128/>128 ug/mL
MIC (ug/mL) S. aureus (S. aureus ATCC 29213): >128/>128/>128 ug/mL
